The values below come from patent US20230103965A1, “NOVEL ACTIVATORS OF THE LIPIDATING TRANSPORTER ATP BINDING CASSETTE PROTEIN TYPE 1 (AB-CA1) AND THERAPEUTIC USES THEREOF” (RAMOT AT TEL-AVIV UNIVERSITY LTD., priority 2020, published 2023).

SMILES strings stand for the structures.

One test relates to Rodent Astrocytes. The test can be described thus: In situ Aβ plaque digestion by apoE4 astrocytes (orthogonal assay). The class given is cell-based. Here is the method:
FIG. 7: Schematic representation of assay measuring in situ A$ plaque degradation by apoE3 and apoE4 astrocytes. The assay is designed to measure the ability of astrocytes to digest senile plaques from brain slides of APP mice, which is impaired in apoE4 expressing astrocytes.
FIG. 9: Activity of test compounds (HTS hits) in the plaque digestion assay. Positive control is CS-6253 (25 μg/ml). Test compound concentration is 50 μM.
In situ Aβ plaque degradation by apoE3 and apoE4 astrocytes. This assay is based on measurement of the ability of the astrocytes to clear Aβ plaques following their co-incubation with brain sections of 5×FAD mice, which contain Aβ plaques. Accordingly, 20 μm coronal frozen brain sections were prepared from 9-13-month-old 5×FAD mice using cryostat and placed on glass slides, 3-4 consecutive sections in each slide. The slides were kept at −80° C. until used. At the beginning of the experiment, the slices were incubated for 48 hr at 37° C. with apoE3 and apoE4 astrocytes (10^5 cells in 100 μl medium per slice) in the presence of 50 μM, or otherwise indicated concentrations, of the HTS hits. The slides were gently placed in round petri dishes with thick wet paper, surrounding the slides. PapPen was used to draw liquid repellent borders of the sections to avoid spillage of coating out of the slides. The slides were gently washed of all containing remains by placing them in PBS for 10 minutes, and were then fixated with 4% PFA for 10 minutes, followed by 0.1% Triton solution for 10 minutes. The slides were then incubated with blocking solution (8% Horse Serum, 0.3% Triton, 1 gr/ml BSA, 0.02% Sodium Azide in PBS) for 30 minutes after which they were immunohistochemically stained with primary anti-PAmyloid (6E10) antibody at a dilution of 1:750 in blocking solution for 1 hr at room temperature. This was then followed by washing (×5 with PBST) and incubation with the secondary antibody (Alexa Fluor® 488 donkey α-mouse IgG, A-21202 at dilution of 1:250 at room temperature for 45 minutes. Nuclei were stained with DAPI (Vektashield, Burlingame, Calif.; H-1200). Analysis of the Aβ plaque burden was performed as percentage of the area covered in plaques using the ImageJ software.
(i) Orthogonal assay which monitors the extent to which the hits can reverse the impaired ability of apoE4 astrocytes to digest Aβ senile plaques in vitro. The principle of this orthogonal assay is presented in FIGS. 7 & 8 [17], whereas the activity of the HTS hits in this assay is presented in FIG. 9.

Another test has as its target T1, ABCA1 (Homo sapiens, UniProt O95477).
T1 construct: The proteins used in these experiments were Extra-Cellular Domain 1 (ECD1) of ABCA1 and Extra-Cellular Domain 2 (ECD2); purchased Biomatick
T1 sequence (O95477 43-639 limits assumed): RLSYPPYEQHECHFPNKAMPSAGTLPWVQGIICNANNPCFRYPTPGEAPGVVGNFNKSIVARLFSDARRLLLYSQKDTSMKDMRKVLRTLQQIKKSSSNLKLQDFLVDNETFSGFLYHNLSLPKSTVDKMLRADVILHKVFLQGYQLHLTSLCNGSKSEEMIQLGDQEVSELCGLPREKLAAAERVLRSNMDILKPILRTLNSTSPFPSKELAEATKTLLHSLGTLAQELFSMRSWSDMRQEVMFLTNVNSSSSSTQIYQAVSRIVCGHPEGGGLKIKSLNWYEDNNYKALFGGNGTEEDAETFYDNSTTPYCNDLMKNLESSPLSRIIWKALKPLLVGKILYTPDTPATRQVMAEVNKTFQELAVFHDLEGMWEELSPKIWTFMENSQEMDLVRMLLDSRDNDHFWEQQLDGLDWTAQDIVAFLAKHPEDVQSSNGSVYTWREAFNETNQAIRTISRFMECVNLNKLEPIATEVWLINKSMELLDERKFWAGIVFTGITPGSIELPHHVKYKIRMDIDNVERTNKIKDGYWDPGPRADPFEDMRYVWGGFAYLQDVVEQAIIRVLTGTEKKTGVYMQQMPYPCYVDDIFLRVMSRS
Nature of the test: Target recognition: binding to ABCA1 (summary of labelled and label free MST). Here is the method:
Microscale thermophoresis (MST) measurements. MST measurements of the binding of the HTS hits to the extracellular domain (ECD) of ABCA1 were performed by two complimentary methods utilizing either fluorescently labeled proteins or the endogenous fluorescence of unlabeled proteins. This was pursued as follows:
The experiments were performed with the purified extracellual domains 1 (ECD1) and 2 (ECD2) of ABCA1 [18]. Two complementary MST tests were performed, in which either the proteins were labeled with a fluorescence moiety or the endogenous fluorescence of the unlabeled proteins was monitored).
A. HTS Screening and Target Recognition • 1.

On to `CSC(SC)=C1CC/C(=C/c2ccc(N(C)C)cc2)C1=O` [Hit #14], for which the “Plaque digestion assay (50 μM) Rodent Astrocytes” value (from here on “Plaque digestion assay”) with Rodent Astrocytes (Table 2) and in the test on Rodent Astrocytes (Table 4) was 134% throughout.

In the case of `Cc1nn(CC(=O)c2ccc(Br)s2)c(C)c1[N+](=O)[O-]` [Hit #3], the “MST binding to ECD1” value at ABCA1 was “bind saturably to ECD1”. The “Plaque digestion assay” value with Rodent Astrocytes (Table 2) and with Rodent Astrocytes (Table 4) was 78% in each case.

Turning to `O=[N+]([O-])c1ccc(N2CCCCC2)c2nonc12` [Hit #7], on ABCA1, the “MST binding to ECD1” value is listed as “scored positively”. The “Plaque digestion assay” value in the test with Rodent Astrocytes (Table 2) and in the test with Rodent Astrocytes (Table 4) was 93% throughout.

For `C[C@]12CC[C@@H](O)CC1CCC1C2CC[C@](C)(C(=O)O)C1/C=C1/Nc2ccccc2C1=O` (stereo partly shown) [Hit #12], the “Plaque digestion assay” value with Rodent Astrocytes (Table 2) and with Rodent Astrocytes (Table 4) was 105% each time.

Take `CC(C)(C)C(=O)COC(=O)c1ccccc1SCc1cc(-c2ccco2)on1` [Hit #4]: at ABCA1, the “MST binding to ECD1” value is given as “bind saturably to ECD1”. Moreover, the “Plaque digestion assay” value in the test on Rodent Astrocytes (Table 2) and in the test with Rodent Astrocytes (Table 4) was 62% each time.
